Measured values reported in ChEMBL document CHEMBL1201862, “PubChem BioAssay data set” (2004).
Calls of active or inactive are those of the source.

Tests used:
[1] = system: HEK293; assay: cells; settings: Homo sapiens
[2] = Vero E6 cell cytotoxicity, dose response, cytotoxicity control for non-replicating M. tuberculosis project, secondary assay (AID 492998); type: functional, VeroE6; settings: Vero C1008
[3] = biological target: T1, Microphthalmia-associated transcription factor (Homo sapiens, UniProt O75030); assay: TRPM1 promoter luciferase signal decrease, dose response, MITF inhibitor project, cell-based, SK-MEL-5, cherry-picked, set 3 (AID 493073); type: functional
T1 sequence (O75030 whole entry): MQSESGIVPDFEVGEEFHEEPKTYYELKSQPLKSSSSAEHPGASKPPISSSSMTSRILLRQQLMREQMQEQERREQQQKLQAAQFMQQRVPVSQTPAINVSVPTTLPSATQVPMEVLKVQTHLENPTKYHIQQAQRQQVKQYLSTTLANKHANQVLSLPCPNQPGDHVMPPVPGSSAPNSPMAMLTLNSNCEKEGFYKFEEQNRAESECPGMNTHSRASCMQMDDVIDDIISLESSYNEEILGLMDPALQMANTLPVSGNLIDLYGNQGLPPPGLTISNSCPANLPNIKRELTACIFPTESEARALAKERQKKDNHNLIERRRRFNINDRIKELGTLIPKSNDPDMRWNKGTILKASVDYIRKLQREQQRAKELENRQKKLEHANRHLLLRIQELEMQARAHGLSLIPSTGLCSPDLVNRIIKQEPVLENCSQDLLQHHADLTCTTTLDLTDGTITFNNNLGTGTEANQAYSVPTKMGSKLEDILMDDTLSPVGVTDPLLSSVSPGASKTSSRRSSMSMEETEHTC

[4] = cytotoxicity toward DRD oncogenic fibroblasts, dose response, cell-based, non-viral oncogenic, luminescence (AID 1934); type: functional; settings: Homo sapiens
[5] = growth suppression of PTEN-null colon cells, dose response, cell-based, HCT116 PTEN knockout (AID 1047); type: functional;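 further: HCT116 colon tumor cells with PTEN knocked out; cells exposed to compound for 60 hours before readout; potency for loss of cell viability measured by luminescence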
[6] = biological target: T2, Caspase-6 (Homo sapiens, UniProt P55212); assay: human caspase-6 inhibitors, dose response, biochemical, VEID-R110 fluorescence, cherry-pick (AID 720632)
T2 sequence (P55212 whole entry): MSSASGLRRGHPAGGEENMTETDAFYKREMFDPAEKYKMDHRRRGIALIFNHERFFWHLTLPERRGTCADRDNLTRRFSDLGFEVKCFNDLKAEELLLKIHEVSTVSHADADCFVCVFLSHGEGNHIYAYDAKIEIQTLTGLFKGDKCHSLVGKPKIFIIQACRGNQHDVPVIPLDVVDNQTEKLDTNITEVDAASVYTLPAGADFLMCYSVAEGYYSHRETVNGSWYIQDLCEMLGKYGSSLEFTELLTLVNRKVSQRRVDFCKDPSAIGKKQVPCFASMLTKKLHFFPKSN

[7] = biological target: T3, Heat shock factor protein 1 (Mus musculus, UniProt P38532); assay: HSF1 potentiators in luciferase reporter cells, confirmation, cell-based, NIH3T3, luminescence, dose retest (AID 435004); type: functional;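 further: stress induced by proteasome inhibitor MG132 added 30 min after compound; luciferase reporter driven by HSF1 response element in NIH3T3 cells; actives raise luminescence as potentiators of the MG132 stress response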
T3 sequence (P38532 whole entry): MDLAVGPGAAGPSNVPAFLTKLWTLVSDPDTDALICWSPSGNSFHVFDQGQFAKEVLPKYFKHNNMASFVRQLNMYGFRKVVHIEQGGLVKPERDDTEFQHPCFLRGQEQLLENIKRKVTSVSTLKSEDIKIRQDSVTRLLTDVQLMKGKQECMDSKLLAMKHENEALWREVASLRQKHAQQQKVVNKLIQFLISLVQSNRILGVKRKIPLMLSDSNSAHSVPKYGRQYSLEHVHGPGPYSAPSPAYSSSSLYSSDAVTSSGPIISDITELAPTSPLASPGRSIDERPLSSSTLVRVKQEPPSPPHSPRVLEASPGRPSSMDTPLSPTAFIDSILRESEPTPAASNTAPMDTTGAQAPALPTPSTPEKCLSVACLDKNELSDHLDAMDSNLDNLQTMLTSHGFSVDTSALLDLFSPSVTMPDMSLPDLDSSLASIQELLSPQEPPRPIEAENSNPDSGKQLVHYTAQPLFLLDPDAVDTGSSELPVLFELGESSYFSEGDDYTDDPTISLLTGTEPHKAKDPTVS

[8] = cells; type: functional
[9] = system: Vero; assay: cells; type: functional, cell-based; settings: Chlorocebus sabaeus
[10] = system: HEK293; assay: cells; settings: Homo sapiens; remark: listed apart in the source
[11] = system: BJ; assay: cytotoxicity toward BJ-TERT-LT-ST fibroblasts, dose response, cell-based, RAS-independent, luminescence (AID 1935); type: functional; settings: Homo sapiens;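 further: BJ fibroblasts immortalized with TERT plus LT and ST oncogenes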
[12] = THP-1 cell cytotoxicity, dose response, cytotoxicity control for non-replicating M. tuberculosis project (AID 489025); type: functional
[13] = system: BJ; assay: cytotoxicity toward BJ-TERT fibroblasts, dose response, cell-based, RAS-independent, luminescence (AID 1933); type: functional; settings: Homo sapiens
[14] = growth suppression of beta-catenin-knockout colon cells, dose response, cell-based, HCT116, human colon tumor (AID 1045); type: functional;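 further: HCT116 colon tumor cells with beta catenin knocked out; cells exposed to compound for 60 hours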
[15] = system: BJ; assay: cells; type: functional, cell-based; settings: Homo sapiens
[16] = biological target: Cytochrome P450 2D6 (Homo sapiens, UniProt P10635);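 further: CYP2D6 member of a cytochrome P450 panel assay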
[17] = Luminescence Cell-Based Dose Response HTS to Identify Inhibitors of 5'UTR Stem-Loop Driven Prion Protein mRNA Translation in H4 Neuroglioblastoma Cells. [Related pubchem assays: 1827 (Project Summary), 1813 (Primary HTS)]; type: functional
[18] = biological target: T4, Eukaryotic translation initiation factor 2-alpha kinase 3 (Homo sapiens, UniProt Q9NZJ5); assay: Counterscreen assay for PERK inhibitors: Dose response cell-based high throughput screening assay to measure inhibition of PERK at 6 hours. [Related pubchem assays: 1522, 1416 ]; type: functional
T4 sequence (Q9NZJ5 whole entry): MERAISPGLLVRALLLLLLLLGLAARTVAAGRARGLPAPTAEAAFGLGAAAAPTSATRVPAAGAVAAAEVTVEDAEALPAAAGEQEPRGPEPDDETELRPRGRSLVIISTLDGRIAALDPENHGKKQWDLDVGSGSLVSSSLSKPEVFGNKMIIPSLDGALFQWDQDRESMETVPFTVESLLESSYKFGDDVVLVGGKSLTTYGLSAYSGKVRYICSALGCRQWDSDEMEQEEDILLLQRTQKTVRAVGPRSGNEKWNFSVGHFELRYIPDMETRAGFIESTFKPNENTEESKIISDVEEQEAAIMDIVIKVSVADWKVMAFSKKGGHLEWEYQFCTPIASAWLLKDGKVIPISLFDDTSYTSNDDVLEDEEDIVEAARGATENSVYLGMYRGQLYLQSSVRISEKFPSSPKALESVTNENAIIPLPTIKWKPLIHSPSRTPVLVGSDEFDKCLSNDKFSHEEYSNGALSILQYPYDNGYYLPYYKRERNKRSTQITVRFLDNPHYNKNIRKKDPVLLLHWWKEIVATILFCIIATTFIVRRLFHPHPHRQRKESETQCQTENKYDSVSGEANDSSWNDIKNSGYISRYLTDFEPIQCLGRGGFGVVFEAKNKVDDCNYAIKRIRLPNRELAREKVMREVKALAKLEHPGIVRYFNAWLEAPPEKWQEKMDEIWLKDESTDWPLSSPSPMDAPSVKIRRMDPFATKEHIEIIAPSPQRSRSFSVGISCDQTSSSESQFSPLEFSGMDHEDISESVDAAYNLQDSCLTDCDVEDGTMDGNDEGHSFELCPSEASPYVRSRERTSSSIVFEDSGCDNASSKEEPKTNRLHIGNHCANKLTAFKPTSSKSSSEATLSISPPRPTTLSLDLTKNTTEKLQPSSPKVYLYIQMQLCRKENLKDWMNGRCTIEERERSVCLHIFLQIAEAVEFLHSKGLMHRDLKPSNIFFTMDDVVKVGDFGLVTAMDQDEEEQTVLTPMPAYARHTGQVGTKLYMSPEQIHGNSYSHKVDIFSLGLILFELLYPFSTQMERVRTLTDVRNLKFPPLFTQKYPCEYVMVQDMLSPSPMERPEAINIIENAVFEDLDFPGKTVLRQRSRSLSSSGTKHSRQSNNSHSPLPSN

[19] = biological target: T4, Eukaryotic translation initiation factor 2-alpha kinase 3; assay: Dose response cell-based high-throughput screening assay to measure PERK inhibition. [Related pubchem assays: 1416 ]; type: functional
[20] = inhibitors of firefly luciferase expression or activity, dose response, H4 neuroglioma cells, luminescence (AID 1990); type: functional, cell-based
[21] = inhibitors of SNCA 5'UTR-driven reporter translation, confirmation, H4 neuroglioma cells, luminescence (AID 1988); type: functional, cell-based
[22] = biological target: Lysine-specific demethylase 4A (Homo sapiens, UniProt O75164); assay: JMJD2A histone demethylase inhibitors, dose response, selectivity assay for GASC-1 inhibitor project, biochemical, DELFIA europium, cherry-picked samples (AID 488840)
[23] = biological target: T5, Mannose-6-phosphate isomerase (Homo sapiens, UniProt P34949); assay: human PMI inhibitors, high substrate, primary screen, biochemical, fluorescence intensity, high mannose 6-phosphate (AID 1220)
T5 sequence (P34949 whole entry): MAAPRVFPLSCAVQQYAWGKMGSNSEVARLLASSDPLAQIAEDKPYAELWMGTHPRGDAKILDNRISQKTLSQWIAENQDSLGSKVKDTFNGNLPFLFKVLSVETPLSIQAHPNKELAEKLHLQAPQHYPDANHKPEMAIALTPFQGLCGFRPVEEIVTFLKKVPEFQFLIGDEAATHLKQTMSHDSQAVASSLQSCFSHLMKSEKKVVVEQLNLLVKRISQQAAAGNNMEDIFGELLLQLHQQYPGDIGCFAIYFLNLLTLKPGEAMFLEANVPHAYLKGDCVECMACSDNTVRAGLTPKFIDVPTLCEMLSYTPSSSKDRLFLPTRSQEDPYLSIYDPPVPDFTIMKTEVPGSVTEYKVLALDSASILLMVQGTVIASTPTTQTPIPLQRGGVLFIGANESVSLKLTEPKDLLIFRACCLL

[24] = system: CHO-K1; assay: Counterscreen for antagonists of the orexin 1 receptor (OX1R; HCRTR1): Homogeneous time resolved fluorescence (HTRF)-based cell-based dose response assay to identify antagonists of the parental CHO-K1 cell line. [Related pubchem assays (depositor defined):AID434989, AID435008, AID463079, AID485270, AID492963, AID492964, AID492965, AID493232, AID504699, AID504701]; type: functional; settings: Cricetulus griseus;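 further: potency for inhibition of ATP-stimulated IP1 production as antagonists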
[25] = biological target: T6, Orexin/Hypocretin receptor type 1 (Homo sapiens, UniProt O43613); assay: Homogeneous Time Resolved Fluorescence (HTRF)-based cell-based high throughput dose response assay for antagonists of the orexin 1 receptor (OX1R; HCRTR1). [Related pubchem assays (depositor defined):AID434989, AID435008, AID463079, AID485270, AID492963, AID492964, AID492965, AID493232, AID504717, AID504718]; type: functional
T6 sequence (O43613 whole entry): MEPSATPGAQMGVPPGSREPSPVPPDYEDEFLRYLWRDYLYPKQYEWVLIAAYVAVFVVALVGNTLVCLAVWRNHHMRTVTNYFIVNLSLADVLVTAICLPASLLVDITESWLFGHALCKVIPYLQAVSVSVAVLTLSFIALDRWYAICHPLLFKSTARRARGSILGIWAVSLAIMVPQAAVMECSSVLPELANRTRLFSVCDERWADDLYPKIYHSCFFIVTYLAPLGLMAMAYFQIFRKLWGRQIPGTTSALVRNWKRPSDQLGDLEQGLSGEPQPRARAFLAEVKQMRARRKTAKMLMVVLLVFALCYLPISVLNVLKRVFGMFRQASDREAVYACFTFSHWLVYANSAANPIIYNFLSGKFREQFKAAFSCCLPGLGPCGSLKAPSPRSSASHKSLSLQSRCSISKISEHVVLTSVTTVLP

[26] = Counterscreen for antagonists of the orexin 1 receptor (OX1R; HCRTR1): Fluorescence-based cell-based high throughput dose response assay to identify antagonists of the parental CHO cell line. [Related pubchem assays (depositor defined):AID434989, AID435008, AID463079, AID485270, AID492963, AID492964, AID492965, AID493232, AID504699, AID504701]; type: functional
[27] = biological target: T6, Orexin/Hypocretin receptor type 1; assay: Fluorescence-based cell-based high throughput dose response assay for antagonists of the orexin 1 receptor (OX1R; HCRTR1). [Related pubchem assays (depositor defined):AID434989, AID435008, AID463079, AID485270, AID492963, AID492964, AID492965, AID493232, AID504717, AID504718]; type: functional
[28] = biological target: Cytochrome P450 2C19 (Homo sapiens, UniProt P33261); assay: Cytochrome panel assay with activity outcomes. Panel member name: p450-cyp2c19 Compounds with AC50 equal or less than 10 uM are considered active; type: functional
Sequence of Cytochrome P450 2C19 (P33261 whole entry): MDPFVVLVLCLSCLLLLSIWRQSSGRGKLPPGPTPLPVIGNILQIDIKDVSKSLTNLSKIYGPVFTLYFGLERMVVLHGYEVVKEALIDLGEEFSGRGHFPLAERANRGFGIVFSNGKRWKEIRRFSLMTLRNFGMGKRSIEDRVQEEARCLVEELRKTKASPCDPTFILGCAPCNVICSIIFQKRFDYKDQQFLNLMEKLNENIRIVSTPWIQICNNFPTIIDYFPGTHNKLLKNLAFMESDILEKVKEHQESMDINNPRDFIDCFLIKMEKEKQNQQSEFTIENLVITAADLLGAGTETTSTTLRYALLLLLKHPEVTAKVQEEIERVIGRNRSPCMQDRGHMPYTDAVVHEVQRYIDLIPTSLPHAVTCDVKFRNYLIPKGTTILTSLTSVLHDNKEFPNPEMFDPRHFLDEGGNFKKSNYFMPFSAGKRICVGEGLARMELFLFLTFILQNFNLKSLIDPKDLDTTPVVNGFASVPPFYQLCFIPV

Sequence of Cytochrome P450 2D6 (P10635 whole entry): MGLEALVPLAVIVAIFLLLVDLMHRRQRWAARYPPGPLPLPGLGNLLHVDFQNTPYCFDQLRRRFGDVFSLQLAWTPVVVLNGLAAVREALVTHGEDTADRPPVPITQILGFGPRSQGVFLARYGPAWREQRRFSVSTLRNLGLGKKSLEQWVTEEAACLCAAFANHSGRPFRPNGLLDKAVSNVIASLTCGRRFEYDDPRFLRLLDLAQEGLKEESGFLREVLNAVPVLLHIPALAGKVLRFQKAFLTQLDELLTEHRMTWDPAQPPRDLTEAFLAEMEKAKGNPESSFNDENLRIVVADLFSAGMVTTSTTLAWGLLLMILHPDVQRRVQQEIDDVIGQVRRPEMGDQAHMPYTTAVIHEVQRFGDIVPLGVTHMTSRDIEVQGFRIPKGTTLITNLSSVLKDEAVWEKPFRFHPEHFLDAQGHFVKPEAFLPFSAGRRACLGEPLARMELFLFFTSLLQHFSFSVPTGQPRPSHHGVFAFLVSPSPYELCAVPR
Sequence of Lysine-specific demethylase 4A (O75164 whole entry): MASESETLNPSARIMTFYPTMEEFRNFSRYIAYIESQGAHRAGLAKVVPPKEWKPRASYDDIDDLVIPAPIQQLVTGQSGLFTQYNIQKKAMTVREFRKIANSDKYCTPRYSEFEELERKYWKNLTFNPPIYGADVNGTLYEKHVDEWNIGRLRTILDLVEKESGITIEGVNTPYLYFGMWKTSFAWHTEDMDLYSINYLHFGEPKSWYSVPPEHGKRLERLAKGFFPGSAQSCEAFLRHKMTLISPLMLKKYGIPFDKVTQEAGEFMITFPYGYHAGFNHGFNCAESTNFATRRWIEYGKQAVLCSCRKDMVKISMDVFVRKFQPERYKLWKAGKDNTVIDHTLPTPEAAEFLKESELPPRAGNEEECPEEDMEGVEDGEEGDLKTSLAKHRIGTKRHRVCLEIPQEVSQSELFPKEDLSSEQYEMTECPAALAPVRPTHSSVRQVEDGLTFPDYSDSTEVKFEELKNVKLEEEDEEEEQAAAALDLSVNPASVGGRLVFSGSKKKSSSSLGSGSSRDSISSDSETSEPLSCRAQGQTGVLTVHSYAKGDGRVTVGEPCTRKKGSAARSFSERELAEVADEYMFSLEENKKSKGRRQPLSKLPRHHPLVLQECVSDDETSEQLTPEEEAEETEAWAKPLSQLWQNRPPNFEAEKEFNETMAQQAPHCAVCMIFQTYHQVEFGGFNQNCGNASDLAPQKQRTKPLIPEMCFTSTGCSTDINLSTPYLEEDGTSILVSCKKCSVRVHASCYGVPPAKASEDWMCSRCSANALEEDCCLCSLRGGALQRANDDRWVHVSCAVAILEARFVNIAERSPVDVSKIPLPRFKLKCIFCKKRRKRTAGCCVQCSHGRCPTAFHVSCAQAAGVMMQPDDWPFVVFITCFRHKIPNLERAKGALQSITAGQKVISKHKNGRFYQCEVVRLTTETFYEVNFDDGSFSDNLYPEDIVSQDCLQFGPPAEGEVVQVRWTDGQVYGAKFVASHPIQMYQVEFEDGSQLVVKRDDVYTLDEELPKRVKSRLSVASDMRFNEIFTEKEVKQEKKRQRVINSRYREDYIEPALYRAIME

O=C1c2cc([N+](=O)[O-])cc3cc([N+](=O)[O-])cc(c23)C(=O)N1c1ccccn1
EC50 [1]: > 59.7 µM (inactive)
CC50 [2]: 15.2 µM (active)
AC50 [3]: 7.92 µM (active)
EC50 [4]: 11.2 µM (active)
EC50 [5]: 9.92 µM (active)
AC50 [6]: 15.3 µM (active)
EC50 [7]: 13.7 µM (active)
IC50 [8]: 3.43 µM (active)
IC50 [9]: 16.3 µM (active)
EC50 [10]: > 59.7 µM (inactive)
EC50 [11]: > 150 µM (inconclusive)
CC50 [12]: 17.5 µM (active)
EC50 [13]: 37.1 µM (active)
EC50 [14]: 7.76 µM (active)
EC50 [15]: 54.8 µM (active)

CC(C)n1nnnc1-c1cc(Cl)cc(Cl)c1
AC50 [16]: inconclusive
EC50 [17]: 10.2 µM (active)
EC50 [18]: > 55.7 µM (not active)
EC50 [19]: > 55.7 µM (not active)
EC50 [20]: > 120 µM (not active)
EC50 [21]: > 120 µM (not active)

CC(=O)Nc1ccc2c(c1)C(C)(C)C(C)N2C (stereo unspecified)
AC50 [22]: 17.9 µM (active)
IC50 [23]: > 50 µM (not active)

CCc1nn(C(CC)C(=O)NCCc2ccc(OC)cc2OC)c(=O)c2cc3occc3n12 (stereo unspecified)
EC50 [1]: > 59.6 µM (inactive)
EC50 [10]: > 59.6 µM (inactive)

Cc1ccc(N(CC(=O)NCCc2ccc(Cl)cc2)S(=O)(=O)c2c(C)noc2C)cc1
IC50 [24]: > 66.2 µM (inactive)
IC50 [25]: 0.585 µM (active)
IC50 [26]: > 49.8 µM (inactive)
IC50 [27]: 2.87 µM (active)

C[N+](C)(N)CCC[N+](C)(C)N
AC50 [16]: inconclusive
AC50 [28]: inconclusive
